Measured values as given in patent US20090233999A1, “COMPOSITIONS AND THERAPEUTIC METHODS INVOLVING ISOFLAVONES AND ANALOGUES THEREOF” (NOVOGEN RESEARCH PTY LTD, priority 1999, published 2009).

Tests used:
IL-6 = test: UVB psoriasis model: immunohistochemical detection of IL-6; format: in vivo, mouse; details: 20 μM topical; 72 h; Skh:hr-1
Experimental: Groups of three Skh:hr-1 mice were exposed to 3×MEdD of UVB radiation, with and without topical treatment with 20 μM Cpd. 18, and were euthanased before and at 24, 48, 72 and 96 h after irradiation, and mid-dorsal skin samples were taken for histological fixation. The samples were fixed for 6 h in Histochoice (Amresco Solon, Ohio), then processed overnight in an automated formalin-ethanol-based system (Tissue Tek VIP; Bayer Diagnostics, Ferntree Gully, Australia) and embedded into paraffin blocks. Sections of 4 μm were cut onto silane-coated slides, de-waxed and rehydrated using xylene followed by graded aqueous ethanol solutions to PBS. […]
The IL-6 was detected by incubation with goat anti-mouse IL-6 antibody (R & D systems) followed biotinylated anti-goat IgG (Vector Laboratories, Burl ingame, CA), before treating with StreptABComplex/HRP (biotinylated horseradish peroxidase and streptavidin; Dako Corporation, CA) for 30 min. […]
The stained sections were examined by light microscopy at 20× magnification and images were captured digitally with a Sony Hyper HAD colour video camera (Sony, Tokyo, Japan). Stain intensity was analysed using a Leica Q500 MC image processing and analysis system (Leica, Cambridge, UK) and semi-quantitated in arbitrary image analysis units as the average intensity of 15 sequential fields across the skin section for each of 3 mice per treatment group. […]

INFγ = INFγ production by murine splenocytes; format: cell-based, mouse; details: 10 μM; Con A
Experimental: Male Skh-1 (hairless) mice, approximately six weeks old were killed by cervical dislocation. Single cell suspensions were made from the spleen and erythrocytes were lysed in buffer (0.14M NH4Cl, 17 mM Tris, pH 7.2). The remaining splenocytes were cultured in RPMI-1640 (Gibco) supplemented with 10% (v:v) FBS, 2 mM L-glutamine, pen/strep and 50 μM 2-mercaptoethanol. Splenocytes were added to quadruplicate wells containing either the T cell mitogen concanavalin A (Con A, Sigma-Aldrich—0. 4 μg/well), the B-cell mitogen LPS (Sigma-Aldrich—1 μg/well) or no mitogen, as well as test compound at a concentration of 10 μM in DMSO. Samples were analysed after a 3 day incubation at 37° C. in 5% CO2 in air. Cell viability was assessed by adding MTT to each well, incubating for a further 4 hrs and then developing colour with 0.04N HCl in isopropanol. Supernatant samples were frozen at −80° C. and IL-6, IFN-γ and TNFα were detected in triplicate using ELISA kits (BD Biosciences).

SMILES | UVB-induced levels of IL-6 immunopositivity in the epidermis (IL-6) | INFγ synthesis by T cells (INFγ)
COc1ccc(C2=Cc3ccc(O)cc3OC2)cc1OC [Cpd. 18, 7-Hydroxy-3′,4′-dimethoxyisoflav-3-ene] | significantly reduced | –
Oc1ccc(C2=Cc3ccc(O)c(Br)c3OC2)cc1 [Cpd. 20, 4′,7-Dihydroxy-8-bromoisoflav-3-ene] | – | marked reduction
